Source: the NIST ThermoML archive (doi:10.1021/je4001697)

Details: Liquid, Pulse-echo method

Cc1ccccc1 [toluene]
Details	speed of sound [m/s]
240 K, 103.32 kPa	1571
240 K, 1104.2 kPa	1575
240 K, 2104.9 kPa	1578.9
240 K, 3105.7 kPa	1582.8
240 K, 4106.3 kPa	1586.7
240 K, 5107.4 kPa	1590.5
240 K, 6107.7 kPa	1594.3
240 K, 7108.4 kPa	1598.1
240 K, 8109.1 kPa	1601.9
240 K, 9109.8 kPa	1605.7
240 K, 10110 kPa	1609.4
240 K, 12612 kPa	1618.6
240 K, 15114 kPa	1627.7
240 K, 17616 kPa	1636.7
240 K, 20117 kPa	1645.6
240 K, 25121 kPa	1663
240 K, 30124 kPa	1680
240 K, 35127 kPa	1696.5
240 K, 40131 kPa	1712.7
240 K, 45134 kPa	1728.5
240 K, 50138 kPa	1744
240 K, 60144 kPa	1774
240 K, 70151 kPa	1802.9
240 K, 80158 kPa	1830.7
240 K, 90165 kPa	1857.6
240 K, 100172 kPa	1883.6
260 K, 102.53 kPa	1476.8
260 K, 1103.4 kPa	1481.1
260 K, 2104 kPa	1485.4
260 K, 3104.8 kPa	1489.7
260 K, 4105.6 kPa	1493.9
260 K, 5106.5 kPa	1498.1
260 K, 6106.8 kPa	1502.3
260 K, 7107.5 kPa	1506.5
260 K, 8108.3 kPa	1510.6
260 K, 9109 kPa	1514.7
260 K, 10110 kPa	1518.8
260 K, 12612 kPa	1528.8
260 K, 15114 kPa	1538.7
260 K, 17615 kPa	1548.5
260 K, 20117 kPa	1558.1
260 K, 25121 kPa	1576.9
260 K, 30124 kPa	1595.2
260 K, 35128 kPa	1613
260 K, 40131 kPa	1630.4
260 K, 45134 kPa	1647.3
260 K, 50138 kPa	1663.9
260 K, 60145 kPa	1695.8
260 K, 70152 kPa	1726.5
260 K, 80160 kPa	1756
260 K, 90166 kPa	1784.3
260 K, 100174 kPa	1811.7
280 K, 103.62 kPa	1385.5
280 K, 1104.5 kPa	1390.2
280 K, 2105.3 kPa	1395
280 K, 3106.2 kPa	1399.7
280 K, 4107.1 kPa	1404.3
280 K, 5107.6 kPa	1408.9
280 K, 6108.1 kPa	1413.5
280 K, 7108.8 kPa	1418
280 K, 8109.4 kPa	1422.5
280 K, 9110.1 kPa	1427
280 K, 10111 kPa	1431.5
280 K, 12612 kPa	1442.4
280 K, 15114 kPa	1453.2
280 K, 17616 kPa	1463.8
280 K, 20118 kPa	1474.2
280 K, 25122 kPa	1494.5
280 K, 30125 kPa	1514.2
280 K, 35128 kPa	1533.3
280 K, 40132 kPa	1551.9
280 K, 45135 kPa	1570
280 K, 50138 kPa	1587.6
280 K, 60145 kPa	1621.5
280 K, 70152 kPa	1654
280 K, 80159 kPa	1685.1
280 K, 90166 kPa	1714.9
280 K, 100173 kPa	1743.7
300 K, 102.33 kPa	1297.2
300 K, 103.33 kPa	1297.1
300 K, 1103.2 kPa	1302.4
300 K, 2104.1 kPa	1307.6
300 K, 3104.7 kPa	1312.7
300.01 K, 1104.2 kPa	1302.4
300.01 K, 2104.9 kPa	1307.6
300.01 K, 3105.6 kPa	1312.7
300.01 K, 4106.4 kPa	1317.8
300.01 K, 5107 kPa	1322.9
300.01 K, 6107.4 kPa	1327.9
300.01 K, 7108.1 kPa	1332.8
300.01 K, 8108.7 kPa	1337.8
300.01 K, 9109.4 kPa	1342.6
300.01 K, 10110 kPa	1347.5
300.01 K, 12612 kPa	1359.4
300.01 K, 15113 kPa	1371.1
300.01 K, 17615 kPa	1382.5
300.01 K, 20117 kPa	1393.8
300.01 K, 25120 kPa	1415.7
300.01 K, 30124 kPa	1436.8
300.01 K, 35127 kPa	1457.3
300.01 K, 40130 kPa	1477.1
300.01 K, 45133 kPa	1496.4
300.01 K, 50136 kPa	1515.1
300.01 K, 60143 kPa	1551.1
300.01 K, 70150 kPa	1585.4
300.01 K, 80158 kPa	1618.1
300.01 K, 90166 kPa	1649.4
300.01 K, 100172 kPa	1679.5
320 K, 102.82 kPa	1211.6
320 K, 102.83 kPa	1211.6
320 K, 1103.6 kPa	1217.3
320 K, 2104.3 kPa	1223.1
320 K, 3105 kPa	1228.7
320 K, 4105.8 kPa	1234.3
320 K, 5106.6 kPa	1239.9
320 K, 6107.1 kPa	1245.4
320 K, 7107.8 kPa	1250.8
320 K, 8108.5 kPa	1256.2
320 K, 9109.2 kPa	1261.5
320 K, 10110 kPa	1266.8
320 K, 12612 kPa	1279.7
320 K, 15113 kPa	1292.4
320 K, 17615 kPa	1304.8
320 K, 20117 kPa	1317
320 K, 25120 kPa	1340.5
320 K, 30124 kPa	1363.2
320 K, 35127 kPa	1385.1
320 K, 40131 kPa	1406.2
320 K, 45134 kPa	1426.7
320 K, 50138 kPa	1446.5
320 K, 60145 kPa	1484.5
320 K, 70152 kPa	1520.6
320 K, 80159 kPa	1554.9
320 K, 90166 kPa	1587.7
320 K, 100173 kPa	1619.1
340 K, 102.94 kPa	1128.5
340 K, 103.2 kPa	1128.5
340 K, 1103.7 kPa	1134.9
340 K, 1104.1 kPa	1134.9
340 K, 2104.3 kPa	1141.2
340 K, 2104.9 kPa	1141.2
340 K, 3105 kPa	1147.5
340 K, 3105.8 kPa	1147.5
340 K, 4105.8 kPa	1153.6
340 K, 4106.6 kPa	1153.6
340 K, 5107.2 kPa	1159.7
340 K, 6107.7 kPa	1165.7
340 K, 7108.4 kPa	1171.7
340 K, 8109.1 kPa	1177.5
340 K, 9109.7 kPa	1183.4
340 K, 10110 kPa	1189.1
340 K, 12612 kPa	1203.2
340 K, 15114 kPa	1217
340 K, 17615 kPa	1230.4
340 K, 20117 kPa	1243.5
340 K, 25120 kPa	1268.8
340 K, 30124 kPa	1293.1
340 K, 35128 kPa	1316.4
340 K, 40131 kPa	1338.9
340 K, 45135 kPa	1360.6
340 K, 50139 kPa	1381.6
340 K, 60146 kPa	1421.7
340 K, 70153 kPa	1459.5
340 K, 80160 kPa	1495.4
340 K, 90166 kPa	1529.6
340 K, 100174 kPa	1562.3
359.99 K, 10111 kPa	1114.3
359.99 K, 12613 kPa	1129.7
359.99 K, 15114 kPa	1144.6
359.99 K, 17616 kPa	1159.1
359.99 K, 20117 kPa	1173.3
359.99 K, 25121 kPa	1200.5
359.99 K, 30124 kPa	1226.4
359.99 K, 35128 kPa	1251.3
359.99 K, 40131 kPa	1275.1
359.99 K, 45134 kPa	1298.1
359.99 K, 50138 kPa	1320.2
359.99 K, 60145 kPa	1362.3
359.99 K, 70152 kPa	1402
359.99 K, 80159 kPa	1439.4
359.99 K, 90166 kPa	1475
359.99 K, 100173 kPa	1508.9
360 K, 103.4 kPa	1047.6
360 K, 1104.1 kPa	1054.7
360 K, 2104.8 kPa	1061.7
360 K, 3105.4 kPa	1068.6
360 K, 4106.4 kPa	1075.4
360 K, 5107 kPa	1082.1
360 K, 6107.4 kPa	1088.7
360 K, 7108 kPa	1095.2
360 K, 8108.7 kPa	1101.7
360 K, 9109.5 kPa	1108
360 K, 10110 kPa	1114.3
360 K, 12612 kPa	1129.7
380 K, 101.06 kPa	968.43
380 K, 1102.5 kPa	976.37
380 K, 2103.4 kPa	984.15
380 K, 3104.1 kPa	991.81
380 K, 4105 kPa	999.34
380 K, 5105.7 kPa	1006.7
380 K, 6106.1 kPa	1014
380 K, 7106.8 kPa	1021.2
380 K, 8107.6 kPa	1028.3
380 K, 9108.3 kPa	1035.2
380 K, 10109 kPa	1042.1
380 K, 12611 kPa	1058.8
380 K, 15113 kPa	1075
380 K, 17615 kPa	1090.7
380 K, 20117 kPa	1106
380 K, 25120 kPa	1135.2
380 K, 30124 kPa	1162.9
380 K, 35127 kPa	1189.3
380 K, 40131 kPa	1214.5
380 K, 45134 kPa	1238.8
380 K, 50138 kPa	1262.1
380 K, 60144 kPa	1306.3
380 K, 70152 kPa	1347.7
380 K, 80159 kPa	1386.7
380 K, 90166 kPa	1423.6
380 K, 100173 kPa	1458.8
400 K, 603.01 kPa	894.98
400 K, 608.94 kPa	895.04
400 K, 1104.2 kPa	899.42
400 K, 2104.6 kPa	908.15
400 K, 3105.3 kPa	916.7
400 K, 4105.1 kPa	925.08
400 K, 4106 kPa	925.07
400 K, 5106.7 kPa	933.29
400 K, 6107.4 kPa	941.35
400 K, 7108 kPa	949.26
400 K, 8108.7 kPa	957.04
400 K, 9109.3 kPa	964.69
400 K, 10110 kPa	972.21
400 K, 12612 kPa	990.48
400 K, 15113 kPa	1008.1
400 K, 17615 kPa	1025
400 K, 20117 kPa	1041.5
400 K, 25120 kPa	1072.8
400 K, 30123 kPa	1102.4
400 K, 35127 kPa	1130.4
400 K, 40130 kPa	1157.1
400 K, 45134 kPa	1182.7
400 K, 50138 kPa	1207.2
400 K, 60144 kPa	1253.4
400 K, 70152 kPa	1296.5
400 K, 80158 kPa	1337
400 K, 90166 kPa	1375.3
400 K, 100173 kPa	1411.7
420 K, 1102.5 kPa	823.4
420 K, 2103.2 kPa	833.27
420 K, 3103.9 kPa	842.89
420 K, 4104.6 kPa	852.28
420 K, 5105.2 kPa	861.45
420 K, 6105.9 kPa	870.42
420 K, 7106.6 kPa	879.2
420 K, 8107.3 kPa	887.79
420 K, 9108 kPa	896.21
420 K, 10109 kPa	904.48
420 K, 12610 kPa	924.47
420 K, 15112 kPa	943.61
420 K, 17614 kPa	961.99
420 K, 20116 kPa	979.68
420 K, 25119 kPa	1013.3
420 K, 30123 kPa	1044.8
420 K, 35126 kPa	1074.5
420 K, 40130 kPa	1102.7
420 K, 45133 kPa	1129.5
420 K, 50137 kPa	1155.2
420 K, 60144 kPa	1203.5
420 K, 70151 kPa	1248.4
420 K, 80158 kPa	1290.4
420 K, 90165 kPa	1329.9
420 K, 100172 kPa	1367.4
